Data on six compounds can be found in PMC8199500, “Novel Bis- and Mono-Pyrrolo[2,3-d]pyrimidine and Purine Derivatives: Synthesis, Computational Analysis and Antiproliferative Evaluation” (Molecules, 2021).

Read-outs that look alike come from different tables or passages of the source.

Data set [1] has as its system metastatic colorectal adenocarcinoma (SW620) cells. Put plainly: MTT proliferation assay, SW620 cells. In kind it is cell-based, human. How it is done: (§1) Human carcinoma cell lines A549 (lung carcinoma), HeLa (cervical carcinoma), SW620 (colorectal adenocarcinoma, metastatic) and CFPAC-1 (pancreatic cancer, derived from metastatic: liver), and normal human foreskin (HFF-1) fibroblasts were obtained from the American Type Culture Collection (ATCC, Manassas, VA, USA). Cells were cultured in humidified atmosphere at 37 °C with 5% CO2. As growth medium, Dulbecco′s modified Eagle medium (DMEM) was used with the addition of fetal bovine serum (10%), L-glutamine (2 mM) and antibiotics: streptomycin ([…]) and penicillin (100 U/mL).
(§2) Cells were seeded onto 96-well microtiter plates at a seeding density of 3000 cells/well for carcinoma cell lines, and 5000 cells/well for normal human fibroblasts. The next day, cells were treated with test agents in five different concentrations (0.01–100 µM) and further incubated for 72 h. […] Following 72 h incubation, the MTT assay was performed and measured absorbances were transformed into percentage of cell growth as described previously. Results were obtained from three independent experiments. IC50 values were calculated using linear regression analysis and results were statistically analyzed by ANOVA, Tukey post-hoc test (p < 0.05).
For orientation: Tetrazolium assays rely on reduction of a dye to a coloured formazan, in cell work by metabolically active cells.

Data set [2] deals with ductal pancreatic adenocarcinoma (CFPAC-1) cells. Put plainly: MTT proliferation assay, CFPAC-1 cells. In kind it is cell-based, human. On the procedure: as §1, §2
In data set [3] the test system is lung adenocarcinoma (A549) cells. In words: MTT proliferation assay, A549 cells. In kind it is cell-based, human. On the procedure:
as §1, §2

Data set [4] deals with CFPAC-1 cells. In words: Annexin V assay for apoptosis detection. In kind it is cell-based, human. Particulars: for viability at 3.95 µM / viability at 1.58 µM: Homo sapiens, CFPAC-1, read-out: viable cells (Ann−/PI−). How it is done:
Cells were seeded into 8-well chambers (Lab-tek II Chamber Slides, Thermo Fisher Scientific, Waltham, MA, USA) in a concentration of 2 × 10^4 cells per well and treated with 2 × IC50 and 5 × IC50 concentrations of selected compounds for 48 and 72 h. Staining of the cells was performed by Annexin-V-FITC Staining kit (Santa Cruz Biotechnology, Dallas, TX, USA) according to the manufacturer′s instructions. Cells were visualised by fluorescent microscope (Olympus, Tokyo, Japan) at magnification of 40×.

Data set [5] has as its system cervical carcinoma (HeLa) cells. In words: MTT proliferation assay, HeLa cells. In kind it is cell-based, human. Particulars: 72 h incubation. How it is done: as §1, §2
Data set [6] has as its system normal human foreskin fibroblasts (HFF-1). In words: MTT proliferation assay, normal fibroblasts HFF-1. Conditions: 72 h incubation. In kind it is cell-based. How it is done:
as §1, §2

Data set [7] has as its system human tumor cell lines (A549, HeLa, CFPAC-1, SW620). In words: MTT proliferation assay, all evaluated tumor cell lines. Conditions: read-out: antiproliferative activity (IC50) over the evaluated tumor cell lines. In kind it is cell-based. On the procedure: as §1, §2
Setting [8] is: Homo sapiens, SW-620, 72 h incubation.
[9] abbreviates: Homo sapiens, CFPAC-1, 72 h incubation.
Where [10] appears, read: Homo sapiens, A549, 72 h incubation.
Where [11] appears, read: 48 h treatment, 1.85 µM (2 × IC50).
Setting [12] is: 48 h treatment, 3.95 µM (5 × IC50).
Where [13] appears, read: 72 h treatment, 1.85 µM (2 × IC50).
Where [14] appears, read: 72 h treatment, 3.95 µM (5 × IC50).

The IC50 is the point on the concentration scale where inhibition reaches its midpoint. `C#CCOc1ccc(-c2ccc(OCc3cn(CCn4ccc5c(Cl)ncnc54)nn3)cc2)cc1` [5f, 4-chloro-7-{2-[4-(((4′-(prop-2-yn-1-yloxy)-[1,1′-biphenyl]-4-yl)oxy)methyl)-1H-1,2,3-triazol-1-yl]ethyl}-7H-pyrrolo[2,3-d]pyrimidine]: the IC50 in data set [1] (setting [8]) is 8 ± 1.8 µM; in data set [2] (setting [9]), 0.79 ± 0.03 µM; in data set [3] (setting [10]) it was 6.9 ± 1.1 µM; in data set [5] (Homo sapiens, HeLa) it was 0.98 ± 0.44 µM; in data set [6], 0.62 µM. The “mode of cell death in CFPAC-1 cells” value in data set [4] (48 and 72 h, 2 × IC50 and 5 × IC50) was “induces apoptosis and primary necrosis in CFPAC-1 cells in a concentration- and time-dependent manner”. The “early apoptotic cells (Ann+)” value turned out to be 11.76 ± 3.58% in data set [4] (setting [11]), 21.21 ± 1.35% in data set [4] (setting [12]), 30.36 ± 1.49% in data set [4] (setting [13]) and 39.63 ± 8.54% in data set [4] (setting [14]). Further, the “late apoptotic/primary necrotic cells (Ann+/PI+)” value in data set [4] (setting [11]) is recorded as 5.88 ± 1.44%; in data set [4] (setting [12]), 6.56 ± 0.24%; in data set [4] (setting [13]), 10.71 ± 4.89%; in data set [4] (setting [14]), 26.14 ± 2.57%. For the same compound, the “secondary necrotic cells (PI+)” value in data set [4] (setting [11]) was found to be 2.72 ± 0.56%; in data set [4] (setting [12]) it was 4.05 ± 1.22%; in data set [4] (setting [13]), 2.68 ± 0.37%; in data set [4] (setting [14]) it was 6.3 ± 2.45%. In addition, the “decrease in cell viability vs control” value in data set [4] (48 h treatment, 5 × IC50) amounted to 28.4%. Besides, in data set [4] (48 h treatment, 5 × IC50), the “increase in the percentage of cells in early apoptosis vs control” value was found to be 21.21%. Further, the “increase in early apoptotic cells vs control” value was determined as 24.08% in data set [4] (72 h treatment, 2 × IC50) and 33.35% in data set [4] (72 h treatment, 5 × IC50). Also, the “rise in late apoptotic/primary necrotic cells vs control” value in data set [4] (72 h treatment, 5 × IC50) was 26.14%. The results for the viability at 3.95 µM in data set [4] (setting [12]) and in data set [4] (setting [14]) were 68.2 ± 0.94% and 27.9 ± 3.23%, respectively. Further, the viability at 1.58 µM in data set [4] (48 h treatment) is 79.6 ± 2.57%; in data set [4] (72 h treatment), 56.2 ± 6.56%.
In general, melting point refers to the temperature, or range, at which the solid turns liquid. `c1nc(N2CCCCC2)c2ccn(CCn3cc(CCCc4cn(CCn5ccc6c(N7CCCCC7)ncnc65)nn4)nn3)c2n1` [6c, 1,3-Bis{1-[2-(4-(piperidin-1-yl)-7H-pyrrolo[2,3-d]pyrimidin-7-yl)ethyl]-1H-1,2,3-triazol-4-yl}propane] returned a melting point of 145 to 147 °C. Also, the midpoint of inhibition in data set [1] (setting [8]), the IC50, lay at 65.2 ± 4.8 µM. For the same compound, the IC50 in data set [2] (setting [9]) amounted to 48.7 ± 1.5 µM. Moreover, 59.3 ± 4.9 µM corresponded to half-maximal inhibition in data set [3] (setting [10]) (IC50). In data set [7] (Homo sapiens), the IC50 lay within 28.2 to 65.2 µM. In data set [5] (Homo sapiens, HeLa), this compound returned an IC50 of 33.7 ± 8.9 µM.
In turn, `c1nc(N2CCCC2)c2ccn(CCn3cc(COc4ccc(OCc5cn(CCn6ccc7c(N8CCCC8)ncnc76)nn5)cc4)nn3)c2n1` [7a, 1,4-Bis{[1-(2-(4-(pyrrolidin-1-yl)-7H-pyrrolo[2,3-d]pyrimidin-7-yl)ethyl)-1H-1,2,3-triazol-4-yl]methoxy}benzene] came in with a melting point of 193 to 195 °C. For the same compound, the IC50 in data set [1] (setting [8]) was found to be 78 ± 2.1 µM. The compound further gave an IC50 in data set [2] (setting [9]) of 25.8 ± 0.98 µM. Further, it took 49.3 ± 6.4 µM to reach half-maximal inhibition in data set [3] (setting [10]) (IC50). In data set [5] (Homo sapiens, HeLa), this compound showed an IC50 of 6.4 ± 0.35 µM. This compound also came in with an IC50 in data set [6] of 0.81 µM.
On to `c1nc(N2CCCCC2)c2ncn(CCn3cc(COc4ccc(-c5ccc(OCc6cn(CCn7cnc8c(N9CCCCC9)ncnc87)nn6)cc5)cc4)nn3)c2n1` [9b, 4,4′-Bis((1-(2-(6-(piperidin-1-yl)-9H-purin-9-yl)ethyl)-1H-1,2,3-triazol-4-yl)methoxy)-1,1′-biphenyl], for which the IC50 in data set [1] (setting [8]) amounted to 5.2 ± 2.2 µM; in data set [2] (setting [9]), 8.1 ± 1.3 µM; in data set [3] (setting [10]) it was 12.3 ± 3.4 µM; in data set [5] (Homo sapiens, HeLa) it was 3.8 ± 0.81 µM; in data set [6], 0.79 µM.
For the compound `C#CCOc1ccc(-c2ccc(OCc3cn(CCn4cnc5c(N6CCCCC6)ncnc54)nn3)cc2)cc1` [9f, 6-(piperidin-1-yl)-9-{2-[4-(((4′-(prop-2-yn-1-yloxy)-[1,1′-biphenyl]-4-yl)oxy)methyl)-1H-1,2,3-triazol-1-yl]ethyl}-9H-purine], the melting point was in the range of 221 to 225 °C. In addition, inhibition in data set [1] (setting [8]) was half-maximal at 23.2 ± 3.2 µM (IC50). In data set [2] (setting [9]), this compound came in with an IC50 of 2.9 ± 1 µM. The compound further displayed an IC50 in data set [3] (setting [10]) of 9.3 ± 0.1 µM. In data set [5] (Homo sapiens, HeLa), this compound returned an IC50 of 3.9 ± 0.69 µM. Moreover, the IC50 in data set [6] was 4.3 µM.
For “{1-[2-(4-(Piperidin-1-yl)-7H-pyrrolo[2,3-d]pyrimidin-7-yl)ethyl]-1H-1,2,3-triazol-4-yl}methyl ether [6d]”, the IC50 in data set [1] (72 h incubation) is 45.5 ± 3.3 µM; in data set [2] (72 h incubation) it was 37.9 ± 3.7 µM; in data set [3] (72 h incubation) it was 51.9 ± 3 µM; in data set [7] it was 28.2 to 65.2 µM; in data set [5], 28.2 ± 9 µM.
